From ChEMBL document CHEMBL2062434, “Isolation and structural elucidation of cyclic tetrapeptides from Onychocola sclerotica” (J Nat Prod, 2012) come the findings set out here.

As a reminder, the IC50 is the concentration needed to halve the response being measured.

Assay [1] in a line: Inhibition of human voltage-dependent L-type calcium channel subunit alpha1C/alpha2delta/beta2a expressed in C1-6-37-3 cells assessed as inhibition of K+-induced calcium influx incubated for 30 mins prior to K+-induction by Fluo-4-AM based FLIPR assay. The assay is classed as cell-based.
A short description of assay [2]: Cytotoxicity against human Fa2N-4 cells after 24 hrs by MTT assay. The format is cell-based. As to conditions: Fa2N-4, 24 h.

Structures are written as SMILES. Where a SMILES comes first, the peptide text is derived from it. [ ]: non-standard residue; d: D form. NMeF = CN[C@@H](Cc1ccccc1)C(=O)O Where only a bound is given, the exact number is not on record here.

As to `COc1ccc([C@@H]2Sc3ccccc3N(CCN(C)C)C(=O)[C@@H]2OC(C)=O)cc1` [DILTIAZEM], the IC50 in assay [1] is 2.2 µM.

Regarding `CC(C)[C@@H]1NC(=O)[C@H](Cc2ccccc2)N(C)C(=O)[C@H](C(C)C)NC(=O)[C@H](Cc2ccccc2)N(C)C1=O` (cyclo([NMeF]V[NMeF]V)), the values for the IC50 in assay [2] and in assay [1] were over 20 µM and 6.2 µM, respectively.

In the case of `COc1ccc(CCN(C)CCCC(C#N)(c2ccc(OC)c(OC)c2)C(C)C)cc1OC` (centres undefined), the IC50 in assay [1] was 0.9 µM.

On to `CCOC(=O)C1=C(C)NC(C)=C(C(=O)OC)C1c1cccc([N+](=O)[O-])c1` (centres undefined) [NITRENDIPINE], for which the 50% inhibitory concentration (IC50) in assay [1] was found to be 0.003 µM.

On to `CC[C@H](C)[C@@H]1NC(=O)[C@H](Cc2ccccc2)N(C)C(=O)[C@H]([C@@H](C)CC)NC(=O)[C@H](Cc2ccccc2)N(C)C1=O` (cyclo(I[NMeF]I[NMeF])), for which the results for the concentration for half-maximal inhibition (IC50) in assay [2] and in assay [1] were over 20 µM and 5 µM, respectively.

Consider `CC[C@H](C)[C@@H]1NC(=O)[C@H](Cc2ccccc2)N(C)C(=O)[C@H](C(C)C)NC(=O)[C@H](Cc2ccccc2)N(C)C1=O` (cyclo(I[NMeF]V[NMeF])), for which the results for the IC50 in assay [2] and in assay [1] were over 20 µM and 7.1 µM, respectively.
